# Measured values from BindingDB's records for patent US20190276450 (Abbvie, 2019).
# Assays:
# [1] = biological target: Non-receptor tyrosine-protein kinase TYK2 (Homo sapiens, UniProt P29597); experiment: TYK2 (TYK2/JAK2 PSTAT4 T-BLAST) Alpha Screen Assay
# Protocol: IL-12 is known to transduce its signal through IL-12 receptor via Jak2 and/or Tyk2. For that reason, the activity against Tyk2/Jak2 was measured by determining the inhibition of IL-12 induced phosphorylation of STAT4 in T-blast cells. […] See, e.g., Sohn et al., J. Immunology (2013) 2205-2216.
# [2] = biological target: Tyrosine-protein kinase JAK2 (Homo sapiens, UniProt O60674); experiment: JAK2 (PSTAT5 UT7) Alpha Screen Assay
# Protocol: (§1) Erythropoietin (EPO) is known to transduce its signal through EPO receptor via Jak2. Activity against Jak2 was therefore measured by determining inhibition of EPO induced phosphorylation of STATS in UT7 cells. From these tests, the EC50 (effective concentration for 50% maximal response) values were determined in 1 μM for the test compounds.
# [3] = biological target: Tyrosine-protein kinase JAK1 (Homo sapiens, UniProt P23458); experiment: JAK1 (PSTAT3 TF1) Alpha Screen Assay
# Protocol: as §1, with “IL-6” for “Erythropoietin (EPO)”, “IL-6” for “EPO”, “Jak1.” for “Jak2.”, “Jak” for “Jak2”, “STAT3” for “STATS”, “TF1” for “UT7”
# Sequence of Tyrosine-protein kinase JAK1 (P23458 whole entry): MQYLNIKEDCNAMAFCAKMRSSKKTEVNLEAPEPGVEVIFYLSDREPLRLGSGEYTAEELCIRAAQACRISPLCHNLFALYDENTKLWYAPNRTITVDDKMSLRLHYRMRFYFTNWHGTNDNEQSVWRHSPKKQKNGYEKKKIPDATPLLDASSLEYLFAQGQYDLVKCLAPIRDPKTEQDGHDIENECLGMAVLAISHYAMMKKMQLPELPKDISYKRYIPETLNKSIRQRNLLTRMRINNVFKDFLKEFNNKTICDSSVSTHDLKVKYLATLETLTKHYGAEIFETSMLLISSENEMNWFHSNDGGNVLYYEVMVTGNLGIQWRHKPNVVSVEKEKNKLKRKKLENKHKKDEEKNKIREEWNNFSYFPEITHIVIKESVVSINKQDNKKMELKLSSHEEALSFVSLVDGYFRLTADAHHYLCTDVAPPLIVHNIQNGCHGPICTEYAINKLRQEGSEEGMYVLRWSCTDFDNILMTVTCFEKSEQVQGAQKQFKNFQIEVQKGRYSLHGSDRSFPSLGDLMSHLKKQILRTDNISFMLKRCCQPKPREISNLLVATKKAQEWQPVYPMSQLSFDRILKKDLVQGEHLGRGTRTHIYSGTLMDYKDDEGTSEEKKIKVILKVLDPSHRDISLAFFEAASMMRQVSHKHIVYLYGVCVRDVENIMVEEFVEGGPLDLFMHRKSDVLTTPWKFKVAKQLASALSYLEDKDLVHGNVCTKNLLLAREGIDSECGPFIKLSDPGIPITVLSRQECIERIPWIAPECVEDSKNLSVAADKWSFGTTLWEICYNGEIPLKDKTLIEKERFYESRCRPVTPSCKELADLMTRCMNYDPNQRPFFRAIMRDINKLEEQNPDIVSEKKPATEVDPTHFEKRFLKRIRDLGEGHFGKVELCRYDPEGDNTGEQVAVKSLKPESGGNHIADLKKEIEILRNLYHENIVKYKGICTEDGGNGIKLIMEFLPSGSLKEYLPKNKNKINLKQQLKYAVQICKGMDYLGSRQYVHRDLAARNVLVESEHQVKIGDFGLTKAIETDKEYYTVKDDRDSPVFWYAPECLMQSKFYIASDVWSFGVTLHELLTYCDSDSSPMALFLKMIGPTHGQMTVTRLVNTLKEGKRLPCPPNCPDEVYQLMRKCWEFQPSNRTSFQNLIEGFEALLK
# Sequence of Non-receptor tyrosine-protein kinase TYK2 (P29597 whole entry): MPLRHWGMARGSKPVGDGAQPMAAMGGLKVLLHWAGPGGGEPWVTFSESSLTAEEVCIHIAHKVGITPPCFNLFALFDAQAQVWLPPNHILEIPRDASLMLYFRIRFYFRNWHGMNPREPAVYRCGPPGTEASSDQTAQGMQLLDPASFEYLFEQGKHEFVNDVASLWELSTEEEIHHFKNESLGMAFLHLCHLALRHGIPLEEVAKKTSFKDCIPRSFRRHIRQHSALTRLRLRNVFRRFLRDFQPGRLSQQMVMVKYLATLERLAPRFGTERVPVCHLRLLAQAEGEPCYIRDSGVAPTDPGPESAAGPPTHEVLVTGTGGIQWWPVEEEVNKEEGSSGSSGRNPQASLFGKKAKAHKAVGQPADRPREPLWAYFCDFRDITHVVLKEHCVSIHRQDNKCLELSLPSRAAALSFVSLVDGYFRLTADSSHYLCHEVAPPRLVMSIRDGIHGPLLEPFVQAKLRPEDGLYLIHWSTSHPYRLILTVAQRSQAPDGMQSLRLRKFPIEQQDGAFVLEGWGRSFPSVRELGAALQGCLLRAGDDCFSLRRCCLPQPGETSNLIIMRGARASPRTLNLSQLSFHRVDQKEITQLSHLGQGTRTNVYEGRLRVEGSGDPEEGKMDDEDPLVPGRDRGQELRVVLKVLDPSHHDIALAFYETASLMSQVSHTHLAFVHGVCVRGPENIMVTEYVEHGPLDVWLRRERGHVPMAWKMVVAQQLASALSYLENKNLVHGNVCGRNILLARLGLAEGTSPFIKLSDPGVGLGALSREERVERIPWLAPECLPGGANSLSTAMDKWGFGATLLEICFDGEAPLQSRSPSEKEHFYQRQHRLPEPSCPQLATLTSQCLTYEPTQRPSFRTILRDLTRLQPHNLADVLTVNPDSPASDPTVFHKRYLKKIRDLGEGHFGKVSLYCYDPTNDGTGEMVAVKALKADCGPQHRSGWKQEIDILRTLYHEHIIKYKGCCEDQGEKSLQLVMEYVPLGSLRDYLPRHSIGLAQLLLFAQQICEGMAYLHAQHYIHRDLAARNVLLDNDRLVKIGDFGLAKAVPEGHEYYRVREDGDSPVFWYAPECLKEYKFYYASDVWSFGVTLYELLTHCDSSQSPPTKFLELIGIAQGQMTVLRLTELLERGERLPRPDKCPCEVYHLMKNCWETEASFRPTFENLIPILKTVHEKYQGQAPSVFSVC
# Sequence of Tyrosine-protein kinase JAK2 (O60674 whole entry): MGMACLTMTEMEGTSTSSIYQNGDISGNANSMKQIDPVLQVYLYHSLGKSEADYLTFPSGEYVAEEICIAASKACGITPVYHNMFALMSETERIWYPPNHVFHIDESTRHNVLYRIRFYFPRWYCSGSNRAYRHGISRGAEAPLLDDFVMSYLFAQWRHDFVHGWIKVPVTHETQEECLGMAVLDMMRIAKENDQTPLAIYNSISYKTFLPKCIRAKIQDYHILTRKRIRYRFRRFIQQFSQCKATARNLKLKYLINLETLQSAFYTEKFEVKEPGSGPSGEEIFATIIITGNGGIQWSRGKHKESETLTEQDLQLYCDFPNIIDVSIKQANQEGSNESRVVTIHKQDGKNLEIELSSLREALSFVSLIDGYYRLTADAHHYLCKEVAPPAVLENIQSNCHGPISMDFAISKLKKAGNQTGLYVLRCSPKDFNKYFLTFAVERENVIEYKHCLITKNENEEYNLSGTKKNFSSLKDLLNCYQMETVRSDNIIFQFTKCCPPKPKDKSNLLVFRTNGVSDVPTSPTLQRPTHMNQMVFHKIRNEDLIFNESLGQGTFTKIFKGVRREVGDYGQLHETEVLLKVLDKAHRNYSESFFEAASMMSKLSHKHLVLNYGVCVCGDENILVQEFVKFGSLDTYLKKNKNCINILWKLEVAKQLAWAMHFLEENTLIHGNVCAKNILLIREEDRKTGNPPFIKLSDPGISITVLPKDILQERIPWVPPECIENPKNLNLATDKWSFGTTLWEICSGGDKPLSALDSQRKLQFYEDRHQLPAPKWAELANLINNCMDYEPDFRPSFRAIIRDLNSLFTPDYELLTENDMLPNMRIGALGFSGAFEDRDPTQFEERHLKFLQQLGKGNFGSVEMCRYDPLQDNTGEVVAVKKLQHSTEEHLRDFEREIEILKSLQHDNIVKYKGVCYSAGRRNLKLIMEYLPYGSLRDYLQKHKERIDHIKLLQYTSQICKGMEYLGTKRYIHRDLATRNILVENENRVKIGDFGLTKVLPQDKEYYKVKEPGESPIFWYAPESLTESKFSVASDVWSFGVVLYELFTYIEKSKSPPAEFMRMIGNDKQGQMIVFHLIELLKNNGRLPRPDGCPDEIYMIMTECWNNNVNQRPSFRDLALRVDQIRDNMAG
smiles,measurement,setting,value
"CO[C@@]1(c2cc(OCC3COC3)cc(-c3cn(C)c4cnc(NC(C)=O)cc34)n2)CCOC1 [US20190276450, Example 6]",EC50,[1],0.05 µM
same,EC50,[2],> 25 µM
same,EC50,[3],21 µM
"CO[C@@]1(c2cc(C(F)F)cc(-c3cn(C)c4cnc(NC(C)=O)cc34)n2)CCOC1 [US20190276450, Example 2.8]",EC50,[1],0.042 µM
same,EC50,[2],> 25 µM
same,EC50,[3],17 µM
"COCc1cc(-c2cn(C)c3cnc(NC(=O)CO)cc23)nc([C@]2(OC)CCOC2)c1 [US20190276450, Example 24]",EC50,[1],0.092 µM
same,EC50,[2],> 25 µM
same,EC50,[3],> 100 µM
"CO[C@@]1(c2cccc(-c3cn(C)c4cnc(NC(N)=O)cc34)n2)CCOC1 [US20190276450, Example 1]",EC50,[1],0.059 µM
same,EC50,[2],> 25 µM
same,EC50,[3],5.45 µM
"COc1cc(-c2cn(C)c3cnc(NC(N)=O)cc23)nc([C@]2(OC)CCOC2)c1 [US20190276450, Example 12.6]",EC50,[1],0.039 µM
same,EC50,[2],> 25 µM
same,EC50,[3],15 µM
"CO[C@@]1(c2cc(O[C@@H](C)CCO)cc(-c3cn(C)c4cnc(NC(C)=O)cc34)n2)CCOC1 [US20190276450, Example 14.4]",EC50,[1],0.134 µM
same,EC50,[2],> 25 µM
same,EC50,[3],63 µM
"CO[C@@]1(c2cc(OCC[C@H](C)O)cc(-c3cn(C)c4cnc(NC(C)=O)cc34)n2)CCOC1 [US20190276450, Example 9]",EC50,[1],0.085 µM
same,EC50,[2],> 25 µM
same,EC50,[3],42 µM
"CO[C@@]1(c2cncc(-c3cn(C)c4cnc(NC(N)=O)cc34)n2)CCOC1 [US20190276450, Example 12]",EC50,[1],0.244 µM
same,EC50,[2],> 25 µM
same,EC50,[3],16.2 µM
"COc1cc(-c2cn(C)c3cnc(NC(C)=O)cc23)nc([C@]2(CO)CCOC2)c1 [US20190276450, Example 22.6]",EC50,[1],0.13 µM
same,EC50,[2],> 25 µM
same,EC50,[3],11.1 µM
"CO[C@H](C)COc1cc(-c2cn(C)c3cnc(NC(C)=O)cc23)nc([C@]2(OC)CCOC2)c1 [US20190276450, Example 22.10]",EC50,[1],0.092 µM
same,EC50,[2],> 25 µM
same,EC50,[3],> 25 µM
"COCc1cc(-c2cn(C)c3cnc(NC(C)=O)cc23)nc([C@@]2(CO)CCOC2)c1 [US20190276450, Example 22a]",EC50,[1],1.2 µM
same,EC50,[2],> 25 µM
"CO[C@@]1(c2cc(OC[C@@H](C)O)cc(-c3cn(C)c4cnc(NC(C)=O)cc34)n2)CCOC1 [US20190276450, Example 14.6]",EC50,[1],0.087 µM
same,EC50,[2],> 25 µM
same,EC50,[3],49 µM
"CO[C@@]1(c2cc(C#N)cc(-c3cn([C@@H]4CC4(F)F)c4cnc(NC(C)=O)cc34)n2)CCOC1 [US20190276450, Example 2a.3]",EC50,[1],0.127 µM
same,EC50,[2],> 25 µM
same,EC50,[3],56 µM
"CC[C@@]1(c2cccc(-c3cn(C)c4cnc(NC(N)=O)cc34)n2)CCOC1 [US20190276450, Example 3.2]",EC50,[1],0.014 µM
same,EC50,[2],> 25 µM
same,EC50,[3],3.4 µM
"CO[C@@]1(c2cc(C(F)F)cc(-c3cn(C)c4cnc(NC(=O)CO)cc34)n2)CCOC1 [US20190276450, Example 26]",EC50,[1],0.05 µM
same,EC50,[2],> 25 µM
same,EC50,[3],> 25 µM
"CC(=O)Nc1cc2c(-c3cccc([C@]4(CO)CCOC4)n3)cn(C)c2cn1 [US20190276450, Example 21]",EC50,[1],0.08 µM
same,EC50,[2],> 25 µM
same,EC50,[3],2.8 µM
"COCCOc1cc(-c2cn(C)c3cnc(NC(C)=O)cc23)nc([C@]2(OC)CCOC2)c1 [US20190276450, Example 25]",EC50,[1],0.025 µM
same,EC50,[2],> 25 µM
same,EC50,[3],49 µM
"COCc1cc(-c2cn(C)c3cnc(NC(C)=O)cc23)nc([C@]2(CO)CCOC2)c1 [US20190276450, Example 22]",EC50,[1],0.146 µM
same,EC50,[2],> 25 µM
same,EC50,[3],10.5 µM
"CC(=O)Nc1cc2c(-c3cc(C(F)F)cc([C@]4(CO)CCOC4)n3)cn(C)c2cn1 [US20190276450, Example 22.5]",EC50,[1],0.072 µM
same,EC50,[2],> 25 µM
same,EC50,[3],7.05 µM
"CO[C@@]1(c2cc(O[C@H]3C[C@H](O)C3)cc(-c3cn(C)c4cnc(NC(C)=O)cc34)n2)CCOC1 [US20190276450, Example 11]",EC50,[1],0.052 µM
same,EC50,[2],> 25 µM
same,EC50,[3],23 µM
"Cn1cc(-c2cncc([C@]3(C)CCOC3)n2)c2cc(NC(N)=O)ncc21 [US20190276450, Example 1b.5]",EC50,[1],0.018 µM
same,EC50,[2],> 25 µM
same,EC50,[3],1.5 µM
"CO[C@@]1(c2cc(OC[C@H](C)O)cc(-c3cn(C)c4cnc(NC(C)=O)cc34)n2)CCOC1 [US20190276450, Example 14.5]",EC50,[1],0.146 µM
same,EC50,[2],> 25 µM
same,EC50,[3],71 µM
"CO[C@@]1(c2cc(C)cc(-c3cn(C)c4cnc(NC(N)=O)cc34)n2)CCOC1 [US20190276450, Example 1b.2]",EC50,[1],0.025 µM
same,EC50,[2],> 25 µM
same,EC50,[3],21 µM
"CO[C@@]1(c2cc(C#N)cc(-c3cn(C)c4cnc(NC(N)=O)cc34)n2)CCOC1 [US20190276450, Example 12.3]",EC50,[1],0.094 µM
same,EC50,[2],> 25 µM
same,EC50,[3],13 µM
"CO[C@@]1(c2cccc(-c3cn([C@H]4C[C@H](C#N)C4)c4cnc(NC(C)=O)cc34)n2)CCOC1 [US20190276450, Example 17]",EC50,[1],0.031 µM
same,EC50,[2],> 25 µM
same,EC50,[3],27 µM
"CO[C@@]1(c2cc(C)cc(-c3cn(C)c4cnc(NC(C)=O)cc34)n2)CCOC1 [US20190276450, Example 2.2]",EC50,[1],0.198 µM
same,EC50,[2],> 25 µM
same,EC50,[3],41 µM
"CO[C@@]1(c2cc(C(F)F)cc(-c3cn([C@H]4C[C@H](C#N)C4)c4cnc(NC(C)=O)cc34)n2)CCOC1 [US20190276450, Example 17.2]",EC50,[1],0.144 µM
same,EC50,[2],> 25 µM
same,EC50,[3],35 µM
"COCc1cc(-c2cn(C)c3cnc(NC(C)=O)cc23)nc([C@]2(OC)CCOC2)c1 [US20190276450, Example 2]",EC50,[1],0.126 µM
same,EC50,[2],> 25 µM
same,EC50,[3],> 40 µM
"COCCOc1cc(-c2cn(C)c3cnc(NC(C)=O)cc23)nc([C@]2(CO)CCOC2)c1 [US20190276450, Example 22.8]",EC50,[1],0.184 µM
same,EC50,[2],> 25 µM
same,EC50,[3],18.9 µM
"COC1(c2cccc(-c3cn(C)c4cnc(NC(N)=O)cc34)n2)COC1 [US20190276450, Example 1b.4]",EC50,[1],0.142 µM
same,EC50,[2],> 25 µM
same,EC50,[3],7.6 µM
"CO[C@@]1(c2cc(OC(F)F)cc(-c3cn(C)c4cnc(NC(C)=O)cc34)n2)CCOC1 [US20190276450, Example 22.2]",EC50,[1],0.089 µM
same,EC50,[2],> 25 µM
same,EC50,[3],35 µM
"COCc1cc(-c2cn(C3COC3)c3cnc(NC(C)=O)cc23)nc([C@]2(OC)CCOC2)c1 [US20190276450, Example 4]",EC50,[1],0.137 µM
same,EC50,[2],> 25 µM
same,EC50,[3],> 100 µM
"CO[C@@]1(c2cccc(-c3cn([C@@H]4CC4(F)F)c4cnc(NC(N)=O)cc34)n2)CCOC1 [US20190276450, Example 1.2]",EC50,[1],0.045 µM
same,EC50,[2],> 25 µM
same,EC50,[3],13.5 µM
"Cn1cc(-c2cncc([C@@]3(C)CCOC3)n2)c2cc(NC(N)=O)ncc21 [US20190276450, Example 1b.6]",EC50,[1],0.195 µM
same,EC50,[2],> 25 µM
same,EC50,[3],4.2 µM
"COCc1cc(-c2cn(C)c3cnc(NC(N)=O)cc23)nc([C@]2(OC)CCOC2)c1 [US20190276450, Example 3]",EC50,[1],0.035 µM
same,EC50,[2],> 25 µM
same,EC50,[3],18 µM
"CO[C@@]1(c2cc(OCC[C@@H](C)O)cc(-c3cn(C)c4cnc(NC(C)=O)cc34)n2)CCOC1 [US20190276450, Example 7]",EC50,[1],0.878 µM
same,EC50,[2],> 25 µM
same,EC50,[3],34 µM
"CO[C@@]1(c2cc(C(F)F)cc(-c3cn(C4COC4)c4cnc(NC(C)=O)cc34)n2)CCOC1 [US20190276450, Example 4.3]",EC50,[1],0.174 µM
same,EC50,[2],> 25 µM
same,EC50,[3],54 µM
"CO[C@@]1(c2cc(OCCO)cc(-c3cn(C)c4cnc(NC(C)=O)cc34)n2)CCOC1 [US20190276450, Example 10]",EC50,[1],0.091 µM
same,EC50,[2],> 25 µM
same,EC50,[3],27 µM
"CC[C@]1(c2cc(C#N)cc(-c3cn(C)c4cnc(NC(C)=O)cc34)n2)CCOC1 [US20190276450, Example 2.11]",EC50,[1],0.104 µM
same,EC50,[2],> 25 µM
same,EC50,[3],7.5 µM
